Data as given in patent publication US11034952B2, “Aptamer methods and compositions” (The Trustees of Columbia University in the City of New York, priority 2013, dated 2021).

Assays:
[1] = system: amino acid complexed with Cp*Rh(III); assay: amino acid selectivity of Cp*Rh(III)-amino acid binding aptamers in sensor form; details: Cp*Rh(III) derivatization agent
Excerpt: A series of aptamers were formed having an unbound nucleic acid pocket (see e.g., FIG. 7B-G).
An exemplary motif having a plurality of unpaired bases forming a pocket that binds a metal complex or an amino acid target molecule is shown in FIG. 8A. […]

[2] = system: phenylalanine complexed with Cu(II); assay: amino acid selectivity of Cu(II) phenylalanine aptamers (RFU vs amino acid concentration); assay type: binding; details: for amino acid selectivity: Cu(II)
Procedure: (§1) FIG. 12A-FIG. 12D is a series of aptamer structures and scatter and line plots showing use thereof.
This aptamer sensor mixture (not including Cp*Rh) was incubated with concentrations of amino acids (Phe, Tyr, Trp, Gly) and fluorescence (RFU) measured (see e.g., FIG. 12B).

[3] = amino acid selectivity of HPheA104 aptamer sensor (RFU vs amino acid concentration); assay type: binding
Procedure: as §1
This aptamer sensor mixture (not including Cp*Rh) was incubated with concentrations of amino acids (Phe, Trp, Tyr) and fluorescence (RFU) measured (see e.g., FIG. 12D).

[4] = oral phenylalanine load, Phe concentration in serum from capillary blood detected by aptamer; assay type: in vivo; details: 100 mg per kg body weight by mouth, 1 hr, FIG. 11B
Procedure: FIG. 11A-FIG. 11B is a chemical structure of PACp*Rh01 aptamer (SEQ ID NO: 53) reactive for Phe and cross-reactive for Trp and a scatter and line plot showing use thereof. FIG. 11A depicts the structure of an aptamer reactive for Phe and cross-reactive for Trp. FIG. 11B is a scatter and line plot showing aptamer detected Phe concentration (μM) as a function of time (hr) in serum samples from capillary blood of subject two and subject three having an oral load of 100 mg/kg at time zero.
This aptamer was used to detected Phe concentration (μM) as a function of time (hr) in serum samples from capillary blood of subject one and subject three that took 100 mg of phenylanine per kg body weight by mouth at time zero (see e.g., FIG. 11B). […] Every hour, blood was measured for the phenylalanine concentration. In a healthy subject, the enzymes that break down phenylalanine (e.g., phenylalanine hydroxylase (PAH) or BH4-cofactor, alone or together) are stimulated and break down phenylalanine resulting in decreased concentration (see 2-5 hr in FIG. 11B).

[5] = read-out: Kd for glucose; cited from earlier work

Row | Compound | amino acid selectivity [1] | other results
1 | CTCTCGGGACGACGGCCCGATCTCAGAGTAGTCGTCCC (listed as DNA, chemistry not fully specified) [Tyr-Cp*Rh(38nt), tyrosine-Cp*Rh(III) complex aptamer] | Tyr selective | –
2 | CTCTCGGGACGACAGGTCCCTTTCGTAGATCGAGGAAGTATGTCGTCCC (listed as DNA, chemistry not fully specified) [Cu(II)-Phe10_49 nt, phenylalanine-Cu(II) complex aptamer] | – | amino acid selectivity [2]: Phe cross-reactive Trp
3 | CTCTCGGGACGACGGGCCACGTTTTCCAGGTACTTTCTAAGGGGTCGTCCC (aptamer; listed as DNA, chemistry not fully specified) [AspaCp03, asparagine-Cp*Rh(III) complex aptamer] | Asn selective | –
4 | CTCTCGGGACGACGCGGTGTGGATCCCTCGTAGAAGGAGTAGTGTCGTCCC (aptamer; listed as DNA, chemistry not fully specified) [LysCp05, lysine-Cp*Rh(III) complex aptamer] | Lys selective | –
5 | CTCTCGGGACGACGGCGGGCGCGTATGTATATCATAAGGTGTAGTCGTCCC (aptamer; listed as DNA, chemistry not fully specified) [LeuCp17, leucine-Cp*Rh(III) complex aptamer] | selective for Leu over Ile | –
6 | CTCTCGGGACGACGGGTGGGAGCGATTCGAGCTACTCAGGTATGTCGTCCC (aptamer; listed as DNA, chemistry not fully specified) [LysCp*Rh18, lysine-Cp*Rh(III) complex aptamer] | Lys non-selective | –
7 | CTCTCGGGACGACGGGTCAGTTAGACCGTGAGGCTTCCGAATAGTCGTCCC (aptamer; listed as DNA, chemistry not fully specified) [GLYHW-Cp*Rh06, glycine-Cp*Rh(III) complex aptamer] | Gly non-specific | –
8 | CTCTCGGGACGACCGCGTTTCCCAAGAAAGCAAGTTTTGGTTGGTCGTCCC (aptamer; listed as DNA, chemistry not fully specified) [HPheA104] | – | amino acid selectivity [3]: Phe reactive; specificity among phenylalanine, tryptophan, tyrosine ([3]; sensor mixture not including Cp*Rh, FIG. 12D): Phe specificity is demonstrated
9 | CTCTCGGGACGACGACACGGGCGTCCCTTCACAAGGAGAGTGAGTCGTCCC (listed as DNA, chemistry not fully specified) [ARG01_Cp, arginine-Cp*Rh(III) complex aptamer] | Arg selective | –
10 | N[C@@H](Cc1ccccc1)C(=O)O [phenylalanine] | – | phenylalanine concentration in blood [4]: rises significantly
11 | CTCTCGGGACGACGGACGCTAATCTTACAAGGGCGTAGTGTATGTCGTCCC (listed as DNA, chemistry not fully specified) [PACp*Rh01, phenylalanine-Cp*Rh(III) complex aptamer] | Phe cross-reactive Trp | –
12 | CTCTCGGGACGACGGCGGGTGAATGCACACTTAGCAGAGAGTAGTCGTCCC (aptamer; listed as DNA, chemistry not fully specified) [GlutaCp02, glutamine-Cp*Rh(III) complex aptamer] | Gln selective | –
13 | CTCTCGGGACGACGAGGCTGGATGCATTCGCCGGATGTTCGATGTCGTCCC (listed as DNA, chemistry not fully specified) [Cu(II)_Phe01, phenylalanine-Cu(II) complex aptamer] | – | amino acid selectivity [2]: Phe reactive; specificity among phenylalanine, tyrosine, tryptophan, glycine ([2]; sensor mixture not including Cp*Rh, FIG. 12B): Phe specificity is demonstrated
14 | CTCTCGGGACGACCGCGGTAGTCTTAACCTAAAGCGGTGTCAGGTCGTCCC (listed as DNA, chemistry not fully specified) [HTrp03, tryptophan-Cp*Rh(III) complex aptamer] | Trp selective | –
15 | CTCTCGGGACGACGGCGGGGAAACAGCTGCAAAATGTGGAGTAGTCGTCCC (Cp*Rh(III)-citrulline complex, further chemistry not given here) [CIT30N02_Cp*Rh, citrulline-Cp*Rh(III) complex aptamer] | citrulline non-selective | –
16 | CTCTCGGGACGACGGGCTAGGCGTGGGTGTAAAGGCACAGGGGTCGTCCC (listed as DNA, chemistry not fully specified) [Gly-Cp sensor, glycine-Cp*Rh(III) complex aptamer] | Gly selective | –
17 | CN(Cc1ccccc1B(O)O)Cc1c2ccccc2c(CN(C)Cc2ccccc2B(O)O)c2ccccc12 [bis-boronic receptor] | – | Kd [5]: ~500 µM
